Entries after “also recorded” stand apart in the source; their conditions may differ.
How the values were obtained:
[1] = system: human subjects diagnosed with fibromyalgia syndrome; test: Patient history of prior treatment of the fibromyalgia subjects (Examples 1-3); conditions: for pain relief by prior OTC analgesics: codeine at low dose; for side effects of prior prescription analgesics / pain relief by prior prescription analgesics: codeine at high dose; for pain relief by prior prescription analgesics: at best
Excerpt: (§1) Patient History of Prior Treatment: A patient history was taken. Prior treatments targeting pain relief were as follows.
Prior treatments targeting other symptoms included the following. The subject had taken tegaserod for irritable bowel syndrome. Additional prior therapies included sertraline for depression, and zolpidem for insomnia. The subject has also taken proclorperazine for dizziness.
Prior treatments targeting other symptoms included the following. The subject had taken tegaserod for irritable bowel syndrome. Additional prior therapies included sertraline for depression, and zolpidem for insomnia.
as §1
Prior treatments targeting other symptoms included the following. The subject had taken tegaserod for irritable bowel syndrome. Additional prior therapies included zolpidem, midazolam, zopiclone, and chlorpheniramine for insomnia.

[2] = system: human subjects diagnosed with fibromyalgia syndrome; test: Treatment of human subjects diagnosed with fibromyalgia with trimetazidine (Examples 1-4, clinical case reports); assay type: in vivo
Description: A person presented with long-standing complaints (15 years) of widespread pain—headaches, upper and lower back pain, neck pain, elbow and knee pain bilaterally, calf pain bilaterally and jaw pain. General non-specific symptoms were fatigue, symptoms of irritable bowel syndrome (constipation-type), insomnia, cognitive and memory impairment, morning stiffness, dizziness, irritability and depression.
Treatment Regime: The subject was administered trimetazidine (modified release formulation, Vastarel® MR), 35 mg orally, twice daily, originally for treatment of their cardiac condition.
Treatment Regime: The subject was administered trimetazidine (modified release formulation, Vastarel® MR), 35 mg orally, twice daily.
The following is a synopsis of the clinical response of each of eight (8) patients diagnosed with FMS, each of whom received treatment with trimetazidine MR (Vastarel® MR), 35 mg orally, twice daily, for a period of at least four (4) weeks.

[3] = biological target: long-chain isoform of 3-ketoacyl coenzyme A thiolase (3KCT) (Homo sapiens, UniProt P55084); conditions: thereby reducing fatty acid oxidation; Kantor et al., Circ Res 2000; cited from earlier work
[4] = Examples 1-2, within 72 h (Ex. 1) or 24 h (Ex. 2) of starting 35 mg orally twice daily, patient-reported
[5] = Examples 1-3, within 72 h (Ex. 1) or 24 h (Ex. 2, 3) of starting 35 mg orally twice daily, patient-reported
[6] = Short Term i.e. within 72 hours, trimetazidine MR 35 mg orally twice daily, FMS patient, Example 4
[7] = Short Term i.e. within 72 hours, trimetazidine MR 35 mg orally twice daily, FMS patients, Example 4
[8] = after four (4) months of continuous use, 35 mg orally twice daily
[9] = examination after at least four weeks of trimetazidine MR 35 mg orally twice daily
[10] = examination after four weeks of trimetazidine MR 35 mg orally twice daily

Chain of long-chain isoform of 3-ketoacyl coenzyme A thiolase (3KCT) (P55084 34-474): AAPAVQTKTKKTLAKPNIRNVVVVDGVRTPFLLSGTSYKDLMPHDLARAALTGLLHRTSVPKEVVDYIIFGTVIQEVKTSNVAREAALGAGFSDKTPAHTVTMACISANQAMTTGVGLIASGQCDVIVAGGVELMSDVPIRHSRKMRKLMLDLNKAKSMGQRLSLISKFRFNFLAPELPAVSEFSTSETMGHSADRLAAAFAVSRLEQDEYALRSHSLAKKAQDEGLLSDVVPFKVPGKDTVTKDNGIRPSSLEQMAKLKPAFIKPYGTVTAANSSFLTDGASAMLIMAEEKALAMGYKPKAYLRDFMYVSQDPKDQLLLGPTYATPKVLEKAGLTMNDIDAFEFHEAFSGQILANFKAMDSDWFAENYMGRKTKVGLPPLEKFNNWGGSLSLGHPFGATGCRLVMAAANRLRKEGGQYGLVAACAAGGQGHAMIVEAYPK
Chain of long-chain isoform of 3-ketoacyl coenzyme A thiolase (3KCT) (P40939 37-763 partner): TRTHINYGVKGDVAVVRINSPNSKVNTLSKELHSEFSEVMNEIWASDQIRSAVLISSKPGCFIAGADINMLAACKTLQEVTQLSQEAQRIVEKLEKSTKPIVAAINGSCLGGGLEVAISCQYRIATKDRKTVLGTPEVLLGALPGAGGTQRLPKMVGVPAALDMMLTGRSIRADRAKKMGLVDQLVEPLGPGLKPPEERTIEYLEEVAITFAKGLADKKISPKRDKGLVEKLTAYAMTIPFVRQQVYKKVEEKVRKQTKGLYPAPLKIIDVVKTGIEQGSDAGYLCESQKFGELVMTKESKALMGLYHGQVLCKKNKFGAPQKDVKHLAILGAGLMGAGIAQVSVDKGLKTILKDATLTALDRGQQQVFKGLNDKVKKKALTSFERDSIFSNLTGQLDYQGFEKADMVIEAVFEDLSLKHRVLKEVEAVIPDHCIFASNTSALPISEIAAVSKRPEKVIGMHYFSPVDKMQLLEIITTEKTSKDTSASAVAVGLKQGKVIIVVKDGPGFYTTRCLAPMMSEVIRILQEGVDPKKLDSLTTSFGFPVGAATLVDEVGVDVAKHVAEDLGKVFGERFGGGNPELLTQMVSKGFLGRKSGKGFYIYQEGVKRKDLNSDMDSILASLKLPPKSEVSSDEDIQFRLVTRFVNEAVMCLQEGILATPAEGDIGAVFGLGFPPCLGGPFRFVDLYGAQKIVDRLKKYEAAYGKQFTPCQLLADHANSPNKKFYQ

COc1ccc2c3c1O[C@H]1[C@@H](O)C=C[C@H]4[C@@H](C2)N(C)CC[C@@]341 [codeine]
pain relief by prior OTC analgesics [1]: no pain relief whatsoever; also recorded: negligible pain relief | side effects of prior prescription analgesics [1]: frequently accompanied by unpleasant side effects | pain relief by prior prescription analgesics [1]: mild to moderate and very temporary relief

CCN(CC)CC(=O)Nc1c(C)cccc1C [lidocaine]
localized pain relief by prior trigger point injections ([1]; injections repeated at 2 to 4 week intervals, extremely painful procedures): best localized pain relief

CCOC(=O)C1(c2ccccc2)CCN(C)CC1 [meperidine]
side effects of prior prescription analgesics [1]: frequently accompanied by unpleasant side effects | pain relief by prior prescription analgesics [1]: mild to moderate and very temporary relief

CC(=O)Nc1ccc(O)cc1 [paracetamol]
pain relief by prior OTC analgesics [1]: no pain relief whatsoever; also recorded: negligible pain relief

COc1cccc(C2(O)CCCCC2CN(C)C)c1 (centres unmarked) [tramadol]
side effects of prior prescription analgesics [1]: frequently accompanied by unpleasant side effects | pain relief by prior prescription analgesics [1]: mild to moderate and very temporary relief

COc1ccc(CN2CCNCC2)c(OC)c1OC [trimetazidine, 1-(2,3,4-trimethyloxybenzyl)piperazine]
time after commencing therapy at which benefits were first noticed ([2]; Example 1, 35 mg orally twice daily): ≤ 24 h | level of irritability ([2]; Example 1, within 72 hours of starting 35 mg orally twice daily, patient-reported): markedly reduced | clarity of thoughts [2, 4]: markedly increased | short and long term memory [2, 4]: improvement | energy levels [2, 5]: very significantly increased | mood [2, 5]: very improved | regularity of bowel habits [2, 5]: markedly improved | sleep patterns [2, 5]: very significantly improved | residual pain after reduction of widespread pain ([2]; Examples 1-3, within 72 h (Ex. 1) or 24 h (Ex. 2, 3) of starting treatment): minimal residual pain reported at the left medial knee; also recorded: minimal residual pain reported at the left hip; also recorded: residual mild headache | sense of well-being ([2]; Medium/Long Term, after five (5) or four (4) weeks of daily use): increased sense of | sustained improvement of all symptoms ([2]; Medium/Long Term, after five (5) weeks of daily use, 35 mg orally twice daily, patient-reported): dramatic 95% | energy levels ([2]; Medium/Long Term, after four (4) weeks of daily use): sustained increase | sustained improvement of symptoms ([2]; Medium/Long Term, after nine (9) weeks of daily use, 35 mg orally twice daily, patient-reported): 90% sustained | sustained improvement of symptoms ([2]; Medium/Long Term, after seven (7) weeks of daily use, 35 mg orally twice daily, patient-reported): dramatic 95% | sustained improvement of symptoms ([2]; Medium/Long Term, after six (6) weeks of daily use, 35 mg orally twice daily, patient-reported): (95%) sustained | Chest Pain [2, 6]: Absence of Chest | Memory [2, 6]: Improved Memory | Nausea [2, 6]: Absence of Nausea | Nausea and Vomiting [2, 6]: Absence of Nausea | nervousness [2, 6]: No Nervousness | reduction in IBS and Acid Reflux Symptoms [2, 6]: 90% reduction in | reduction in irritability [2, 6]: 90% reduction in | reduction in severity of Pre-Menstrual Cramps [2, 6]: 70% reduction in | reduction in symptoms of Irritable Bowel Syndrome [2, 6]: 90% reduction in | symptoms of Irritable Bowel Syndrome [2, 6]: Markedly reduced | alertness and clarity of thinking [2, 7]: Increased alertness | dizziness/dizzy spells [2, 7]: Infrequent dizzy; also recorded: Absence of | energy (feeling) [2, 7]: Energetic feeling | improved mood and concentration [2, 7]: Significantly | improved mood and memory [2, 7]: Significantly | reduction in widespread pain and trigger point pain [2, 7]: 90% reduction in | sleep [2, 7]: Consistent restful | quality of life at follow-up [2, 8]: same marked improvement | relapse of symptoms at follow-up [2, 8]: no relapse | quality of life at follow-up ([2]; after six (6) months of continuous use, 35 mg orally twice daily): same marked improvement | pain at trigger points at follow-up ([2]; after six (6) months of continuous use, in reaction to stress or infections): infrequent episodes of pain | EXAMINATION FINDINGS: affect [2, 9]: markedly improved | EXAMINATION FINDINGS: resolution of trigger point tenderness [2, 9]: Sustained | EXAMINATION FINDINGS: affect and energy levels [2, 10]: markedly improved | EXAMINATION FINDINGS: improvement in physical appearance [2, 10]: obvious marked | EXAMINATION FINDINGS: improved energy levels ([2]; examination after ten weeks of trimetazidine MR 35 mg orally twice daily): Markedly | improvement in all symptoms and signs of fibromyalgia ([2]; within 24 hours of starting treatment, 35 mg orally twice daily): vast improvement | reduction in widespread pain ([2]; within 24 hours of starting treatment, trimetazidine MR 35 mg orally twice daily, FMS patient, patient-reported): 95% | improvement in all symptoms and signs of fibromyalgia ([2]; within 72 hours of starting treatment, 35 mg orally twice daily): vast improvement | reduction in widespread pain ([2]; within 72 hours of starting treatment, trimetazidine MR (Vastarel MR) 35 mg orally twice daily, FMS patient, patient-reported): 90% | reduction in widespread pain ([2]; within 72 hours of starting treatment, trimetazidine MR (Vastarel MR) 35 mg orally twice daily, FMS patient, patient-reported, listed as Trimetazidine): 90% reduction in | effect on long-chain 3-ketoacyl coenzyme A thiolase (3KCT) [3]: inhibits
